# Laboratory results as given in patent publication US20240139171A1, “TREATMENT AND/OR REDUCTION OF OCCURRENCE OF MIGRAINE” (CGRP Diagnostics GmbH, priority 2021, published 2024).
# Key:
# [1] = tested on: naive central trigeminovascular neurons; conditions: in vivo; cited from earlier work
# [2] = tested on: high-threshold (HT) trigeminovascular neurons; experiment: Activation and sensitization of HT trigeminovascular neurons by cortical spreading depression (CSD); format: in vivo, rat; conditions: 30 mg/kg IV; for mean firing rate of HT neurons before CSD: before CSD (4 hours post-treatment)
# From the text: (§1) Experiments were approved by the Beth Israel Deaconess Medical Center and Harvard Medical School standing committees on animal care, and in accordance with the U. S. National Institutes of Health Guide for the Care and Use of Laboratory Animals. Male and female Sprague-Dawley rats (250-350 g) were anesthetized with urethane (0.9-1.2 g/kg i.p.). They were fitted with an intra-tracheal tube to allow artificial ventilation (0.1 L/min of O2), and an intra-femoral-vein cannula for later infusion of drugs. Rats were placed in a stereotaxic apparatus, and core temperature was kept at 37° C. using a heating blanket. End-tidal CC was continuously monitored and kept within physiological range (3.5-4.5 pCC). Once stabilized, rats were paralyzed with rocuronium bromide (10 mg/ml, 1 ml/hr continuous intravenous infusion) and ventilated. For stimulation of the cranial dura later in the experiment, a 5×5-mm opening was carefully carved in the parietal and occipital bones in front and behind the lambda suture, directly above the left transverse sinus. The exposed dura was kept moist using a modified synthetic interstitial fluid (135 mM NaCl, 5 mM KCl, 1 mM MgCh, 5 mM CaCh, 10 mM glucose and 10 mM Hepes, pH 7.2). For single-unit recording in the spinal trigeminal nucleus, a segment of the spinal cord between the obex and C2 was uncovered from overlying tissues, stripped of the dura mater, and kept moist with mineral oil.
# (§2) To record neuronal activity, a tungsten microelectrode (impedance 3-4 MO) was lowered repeatedly into the spinal trigeminal nucleus (STN) in search of central trigeminovascular neurons receiving convergent input from the dura and facial skin. Trigeminovascular neurons were first identified based on their responses to electrical stimulation of the dura. […] Dural receptive fields were mapped by indenting the dura (with the 4.19 g VFH monofilament) at points separated by 1 mm mediolaterally and rostrocaudally. Points at which dural indentation produced a response in >50% of the trials were considered inside the neurons receptive field. Cutaneous receptive fields were mapped by applying innocuous and noxious mechanical stimulation to all facial skin areas and the cornea. An area was considered outside the receptive field if no stimulus produced a response in >50% of the trials. Responses to mechanical stimulation of the skin were determined by applying brief (10 s) innocuous and noxious stimuli to the most sensitive portion of the cutaneous receptive field. Innocuous stimuli consisted of slowly passing a soft bristled brush across the cutaneous receptive field (one 5-s brush stroke from caudal to rostral and one 5-s brush stroke from rostral to caudal) and pressure applied with a loose arterial clip. Noxious stimuli consisted of pinch with a strong arterial clip (Palecek et al, 1992, J. Neurophysiol. 67: 1562-1573; Dado et al, 1994, J. Neurophysiol. 71:981-1002; Burstein et al., 1998, J. Neurophysiol. 79:964-982). More intense or prolonged stimuli were not used to avoid inducing prolonged changes in spontaneous neuronal discharge or response properties. Responses to mechanical stimulation of the cornea consisted of gentle and slow brushing strokes with a thin paintbrush (about 10 hair-follicles). Two classes of neurons were thus identified: wide-dynamic-range (WDR) neurons (incrementally responsive to brush, pressure and pinch), and high-threshold (HT) neurons (unresponsive to brush). Real-time waveform discriminator was used to create and store a template for the action potential evoked in the neuron under study by electrical pulses on the dura; spikes of activity matching the template waveform were acquired and analyzed online and offline using Spike 2 software (CED, Cambridge, UK). Induction and recording of cortical spreading depression.
# (§3) Cortical spreading depression (CSD) was induced mechanically by inserting a glass micropipette (tip diameter 25 μm) about 1 mm into the visual cortex for 10 sec. […]
# meningeal Aδ-fibers = conditions: in vivo; cited from earlier work
# [3] = tested on: wide-dynamic-range (WDR) trigeminovascular neurons; experiment: Activation of WDR trigeminovascular neurons by cortical spreading depression (CSD); format: in vivo, rat; conditions: male and female rats, 30 mg/kg IV
# From the text: Experiments were approved by the Beth Israel Deaconess Medical Center and Harvard Medical School standing committees on animal care, and in accordance with the U. S. National Institutes of Health Guide for the Care and Use of Laboratory Animals. Male and female Sprague-Dawley rats (250-350 g) were anesthetized with urethane (0.9-1.2 g/kg i.p.). They were fitted with an intra-tracheal tube to allow artificial ventilation (0.1 L/min of O2), and an intra-femoral-vein cannula for later infusion of drugs. Rats were placed in a stereotaxic apparatus, and core temperature was kept at 37° C. using a heating blanket. End-tidal CC was continuously monitored and kept within physiological range (3.5-4.5 pCC). Once stabilized, rats were paralyzed with rocuronium bromide (10 mg/ml, 1 ml/hr continuous intravenous infusion) and ventilated. […]
# To record neuronal activity, a tungsten microelectrode (impedance 3-4 MO) was lowered repeatedly into the spinal trigeminal nucleus (STN) in search of central trigeminovascular neurons receiving convergent input from the dura and facial skin. […] Responses to mechanical stimulation of the skin were determined by applying brief (10 s) innocuous and noxious stimuli to the most sensitive portion of the cutaneous receptive field. […]
# [4] = tested on: naive high-threshold (HT) trigeminovascular neurons in the spinal trigeminal nucleus; experiment: Single-unit recording of spontaneous and evoked activity of naive HT trigeminovascular neurons; format: in vivo, rat; conditions: 30 mg/kg IV
# From the text: as §1, §2, §3
# [5] = tested on: naive wide-dynamic-range (WDR) trigeminovascular neurons in the spinal trigeminal nucleus; experiment: Single-unit recording of spontaneous and evoked activity of naive WDR trigeminovascular neurons; format: in vivo, rat; conditions: 30 mg/kg IV
# From the text: as §1, with “For single-unit recording in the spinal trigeminal nucleus, a segment of the spinal cord between the obex and C2 was uncovered from overlying tissues, stripped of the dura mater, and kept moist with mineral oil.” left out
# To record neuronal activity, a tungsten microelectrode (impedance 3-4 MO) was lowered repeatedly into the spinal trigeminal nucleus (STN) in search of central trigeminovascular neurons receiving convergent input from the dura and facial skin. […] Responses to mechanical stimulation of the skin were determined by applying brief (10 s) innocuous and noxious stimuli to the most sensitive portion of the cutaneous receptive field. […] Real-time waveform discriminator was used to create and store a template for the action potential evoked in the neuron under study by electrical pulses on the dura; spikes of activity matching the template waveform were acquired and analyzed online and offline using Spike 2 software (CED, Cambridge, UK). […]
# [6] = female rats, 2 hours after CSD, 6 hours after administration
# [7] = male and female rats, 2 hours after CSD, 6 hours after administration
# [8] = male rats, 2 hours after CSD, 6 hours after administration
molecule,measurement,setting,value
NCCCC[C@H](NC(=O)[C@@H](Cc1cc(Br)c(O)c(Br)c1)NC(=O)N1CCC(N2Cc3ccccc3NC2=O)CC1)C(=O)N1CCN(c2ccncc2)CC1 [BIBN4096BS],effect on naive central trigeminovascular neurons responses to electrical stimulation of the superior sagittal sinus and microiontophoretic L-glutamate,[1],inhibits
fremanezumab [CGRP-mAb],HT neurons with expanded dural receptive fields after CSD,[2]; female rats,0/6
same,HT neurons with expanded facial receptive fields after CSD,[2]; female rats,0/6
same,change of HT response to brushing the cornea after CSD,[2]; female rats,remained unchanged
same,HT neuronal responses to dural indentation with VFH after CSD,[2]; [6],8.1±6.4 spikes/sec
same,mean firing rate of HT neurons after CSD,[2]; [6],5.0±3.4 spikes/sec
same,HT neuronal responses to dural indentation with VFH before CSD,"[2]; female rats, before CSD",10.5±1.6 spikes/sec
same,mean firing rate of HT neurons before CSD,[2]; female rats,3.3±1.7 spikes/sec
same,"difference in proportion of HT neurons activated by CSD, CGRP-mAb vs isotype-conAb",[2]; male and female rats,86%
same,change of HT neuronal responses to brush after CSD,[2]; [7],remained unchanged
same,change of HT neuronal responses to pinch after CSD,[2]; [7],remained unchanged
same,change of HT neuronal responses to pressure after CSD,[2]; [7],remained unchanged
same,HT neurons activated by CSD (case-by-case analysis),"[2]; male and female rats, activated/tested neurons",2/14
same,HT neurons with expanded dural receptive fields after CSD,[2]; male rats,2/8
same,HT neurons with expanded facial receptive fields after CSD,[2]; male rats,2/8
same,HT neuronal responses to dural indentation with VFH after CSD,[2]; [8],1.9±1.5 spikes/sec
same,mean firing rate of HT neurons after CSD,[2]; [8],1.9±1.5 spikes/sec
same,HT responses to corneal stimulation after CSD,"[2]; male rats, after CSD",9. ±1.8 spikes/sec
same,HT neuronal responses to dural indentation with VFH before CSD,"[2]; male rats, before CSD",1.8±0.6 spikes/sec
same,HT responses to corneal stimulation before CSD,"[2]; male rats, before CSD",10.8±3.3 spikes/sec
same,mean firing rate of HT neurons before CSD,[2]; male rats,1.2±0.6 spikes/sec
same,effect on meningeal Aδ-fibers,meningeal Aδ-fibers,inhibits
same,"difference in proportion of WDR neurons activated by CSD, CGRP-mAb vs isotype-conAb",[3],2%
same,WDR neurons activated by CSD (case-by-case analysis),[3]; activated/tested neurons,5/13
same,decrease in firing of HT neurons to mechanical stimulation of the dura,[4]; female rats,61%
same,effect on spontaneous activity of HT neurons,[4]; female rats,did not reduce the spontaneous activity of HT or WDR neurons
same,effect on sensitivity of HT neurons to mechanical stimulation of the dura,[4]; male and female rats,reduced the sensitivity to mechanical stimulation of the dura in the HT
same,"effect on responses of HT neurons to innocuous (brush, pressure) or noxious (pinch) mechanical stimulation of the skin or the cornea",[4]; male or female rats,did not alter the responses of HT or WDR neurons
same,decrease in firing of HT neurons to mechanical stimulation of the dura,[4]; male rats,75%
same,effect on spontaneous activity of HT neurons,[4]; male rats,reduced the spontaneous activity of the HT
same,decrease in spontaneous neuronal firing of HT neurons,"[4]; male rats, within 3-4 hrs",90%
same,effect on spontaneous activity of WDR neurons,[5]; female rats,did not reduce the spontaneous activity of HT or WDR neurons
same,effect on sensitivity of WDR neurons to mechanical stimulation of the dura,[5]; male and female rats,but not the WDR neurons
same,"effect on responses of WDR neurons to innocuous (brush, pressure) or noxious (pinch) mechanical stimulation of the skin or the cornea",[5]; male or female rats,did not alter the responses of HT or WDR neurons
